# Test results: patent US7964634B2, “Therapeutic compounds” (Allergan, Inc., priority 2008, dated 2011)
# Tested on: lashes and adjacent hairs of the eyelids
# Test: Observation of eyelash and hair growth in glaucoma patients treated in one eye
# Type: in vivo
# From the text: In the course of treating patients having glaucoma, treatment may only be appropriate in one eye. […] The lash appearance on the lids of the treated eyes would have appeared quite attractive if it represented a bilateral phenomenon. As a result of its asymmetric nature, the long lashes on one side could be construed as disturbing from a cosmetic standpoint. A systemic examination was preformed as a result of the asymmetric phenomenon. It soon became apparent that this altered appearance was not an isolated finding.
# The changes in the lashes were apparent on gross inspection in several patients once attention was focused on the issue. In those with light colored hair and lashes, the differences were only seen easily with the aid of the high magnification and lighting capabilities of the slit lamp biomicroscope. In the course of glaucoma follow-up examination, attention is generally immediately focused on the eye itself. As a result of the high power magnification needed only one eye is seen at a time and the eye is seen at a high enough power that the lashes are not in focus. At these higher powers, any lash asymmetry between the two eyes is not likely to be noticed except by careful systematic comparison of the lashes and adjacent hairs of the eyelids of the two eyes. […]
compound,measurement,setting,value
CCNC(=O)CCC/C=C\C[C@@H]1[C@@H](/C=C/[C@@H](O)CCc2ccccc2)[C@H](O)C[C@@H]1O [bimatoprost],differences in lashes and adjacent hairs of the treated side,all patients taking the drug on a unilateral basis for longer than 6 months,Definite differences could be identified to varying degrees
same,lash appearance in treated eye versus non-treated eye,glaucoma patient treated in one eye only,"longer, thicker, and fuller in the treated eye than in the non-treated eye"
